Read-outs that look alike come from different tables or passages of the source.
Columns and labels:
[1] = target: T1, second (BD2: amino acids E352-E168) bromodomain of BRD4 (Homo sapiens, UniProt O60885); experiment: TR-FRET bromodomain binding assay, BRD4 BD2; conditions: Ki calculated from IC50, probe Kd and probe concentration, read-out: TR-FRET Binding Ki: BRD4 (BDII_E352-M457)
T1 construct: protocol
In short: (§1)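 Values are Ki: IC50s from TR-FRET competition with an Alexa647-labeled BET-inhibitor probe were converted using probe Kd and probe concentration. Purified His-tagged bromodomain; pH 6.0 sodium phosphate buffer.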

[2] = target: T2, first (BD1: amino acids K57-E168) bromodomain of BRD4 (Homo sapiens, UniProt O60885); experiment: TR-FRET bromodomain binding assay, BRD4 BD1; conditions: Ki calculated from IC50, probe Kd and probe concentration, read-out: TR-FRET Binding Ki: BRD4 (BDI_K57-E168)
T2 construct: His-tagged first (BD1: amino acids K57-E168)
In short: as §1

[3] = test system: breast cancer cell line MX-1; experiment: MX-1 cell line proliferation assay (3-day); type: cell-based; conditions: Homo sapiens, MX1, MX-1 cells, Cell Titer Glo, read-out: Cellular proliferation: EC50
In short: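 EC50 derived by sigmoidal fitting of Cell Titer Glo signal relative to DMSO controls. Compound, 3 μM down to 0.0001 μM final in 3-fold steps, was added to adhered MX-1 cells (5000/well, RPMI + 10% FBS) for a 3-day incubation at 37° C.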

[4] = TR-FRET assay protocol (A-G, compound concentration range)
[5] = TR-FRET assay protocol (D, E or G) per compound

SMILES | Ki [1, 4] [nM] | Ki [2, 4] [nM] | EC50 ([3]; 72 h incubation) [nM] | Ki [1, 5] [nM] | Ki [2, 5] [nM] | EC50 ([3]; 72 hours with compound) [nM]
CCCS(=O)(=O)Nc1ccc(Oc2ccc(F)cc2F)c(-c2cn(C)c(=O)cc2OCC)c1 [Example 349, N-[4-(2,4-difluorophenoxy)-3-(4-ethoxy-1-methyl-6-oxo-1,6-dihydropyridin-3-yl)phenyl]propane-1-sulfonamide] | 8.71 | 43.8 | 151 | – | – | –
CCS(=O)(=O)Nc1ccc(Oc2ccc(F)cc2F)c(-c2cn(C)c(=O)cc2-c2cnn(CC(C)C)c2)c1 [Example 391, N-[4-(2,4-difluorophenoxy)-3-{1-methyl-4-[1-(2-methylpropyl)-1H-pyrazol-4-yl]-6-oxo-1,6-dihydropyridin-3-yl]phenyl}ethanesulfonamide] | – | – | – | 4.59 | 9.05 | 57.3
CCOc1cc(=O)n(C)cc1-c1cc(NC(=O)c2ccccn2)ccc1Oc1ccc(F)cc1F [Example 415, N-[4-(2,4-difluorophenoxy)-3-(4-ethoxy-1-methyl-6-oxo-1,6-dihydropyridin-3-yl)phenyl]pyridine-2-carboxamide] | – | – | – | 33.3 | 40.5 | 279
Cn1cc(-c2cc(=O)n(C)nc2-c2ccccc2Oc2ccccc2)cn1 [Example 103, 2-methyl-5-(1-methyl-1H-pyrazol-4-yl)-6-(2-phenoxyphenyl)pyridazin-3(2H)-one] | 109 | 253 | > 3000 | – | – | –
CCOc1cc(=O)n(C)cc1-c1cc(NS(=O)(=O)c2ccccc2)ccc1Oc1ccc(F)cc1F [Example 344, N-[4-(2,4-difluorophenoxy)-3-(4-ethoxy-1-methyl-6-oxo-1,6-dihydropyridin-3-yl)phenyl]benzenesulfonamide] | 5.07 | 23.1 | 271 | – | – | –
CCS(=O)(=O)Nc1ccc(Oc2ccc(C(N)=O)cc2)c(-c2cn(C)c(=O)cc2OCC(F)(F)F)c1 [Example 294, 4-{4-[(ethylsulfonyl)amino]-2-[1-methyl-6-oxo-4-(2,2,2-trifluoroethoxy)-1,6-dihydropyridin-3-yl]phenoxy}benzamide] | 8.3 | 27.8 | > 3000 | – | – | –
Cn1nc(-c2ccccc2Oc2ccccc2)c(-c2cc[nH]c(=O)c2)cc1=O [Example 55, 2-methyl-5-(2-oxo-1,2-dihydropyridin-4-yl)-6-(2-phenoxyphenyl)pyridazin-3(2H)-one] | 778 | 6890 | 13700 | – | – | –
Cn1nc(-c2ccccc2Oc2ccccc2)c(-c2ccc(CO)cc2)cc1=O [Example 79, 5-[4-(hydroxymethyl)phenyl]-2-methyl-6-(2-phenoxyphenyl)pyridazin-3(2H)-one] | 87.5 | 126 | 1870 | – | – | –
CC(C)N1CCN(c2ccc(-c3cc(=O)n(C)nc3-c3ccccc3Oc3ccccc3)cc2)CC1 [Example 180, 2-methyl-6-(2-phenoxyphenyl)-5-{4-[4-(propan-2-yl)piperazin-1-yl]phenyl}pyridazin-3(2H)-one] | 67.7 | 44.5 | 372 | – | – | –
Cn1nc(-c2ccccc2Oc2ccccc2)c(C2=CCN(C(=O)OC(C)(C)C)CC2)cc1=O [Example 81, tert-butyl 4-[1-methyl-6-oxo-3-(2-phenoxyphenyl)-1,6-dihydropyridazin-4-yl]-3,6-dihydropyridine-1(2H)-carboxylate] | 733 | 1120 | > 3000 | – | – | –
Cn1cc(-c2cc(NS(C)(=O)=O)ccc2OCC2CCOCC2)ccc1=O [Example 250, N-[3-(1-methyl-6-oxo-1,6-dihydropyridin-3-yl)-4-(tetrahydro-2H-pyran-4-ylmethoxy)phenyl]methanesulfonamide] | 12500 | 143 | > 3000 | – | – | –
CCOc1cc(=O)n(C)cc1-c1cc(NC(=O)c2cc(Cl)ccc2Cl)ccc1Oc1ccc(F)cc1F [Example 412, 2,5-dichloro-N-[4-(2,4-difluorophenoxy)-3-(4-ethoxy-1-methyl-6-oxo-1,6-dihydropyridin-3-yl)phenyl]benzamide] | – | – | – | 11.9 | 28.9 | 251
CCOc1cc(=O)n(C)cc1-c1cc(NS(=O)(=O)CC)ccc1Oc1cccnc1 [Example 405, N-[3-(4-ethoxy-1-methyl-6-oxo-1,6-dihydropyridin-3-yl)-4-(pyridin-3-yloxy)phenyl]ethanesulfonamide] | – | – | – | 4.99 | 36.3 | 50.2
CCOc1cc(=O)n(C)cc1-c1cc(NS(=O)(=O)CC)ccc1OCC1CC1 [Example 381, N-[4-(cyclopropylmethoxy)-3-(4-ethoxy-1-methyl-6-oxo-1,6-dihydropyridin-3-yl)phenyl]ethanesulfonamide] | – | – | – | 56.1 | 33.4 | 115
CN1CCN(Cc2cccc(-c3cc(=O)n(C)nc3-c3ccccc3Oc3ccccc3)c2)CC1 [Example 60, 2-methyl-5-{3-[(4-methylpiperazin-1-yl)methyl]phenyl}-6-(2-phenoxyphenyl)pyridazin-3(2H)-one] | 413 | 170 | > 3000 | – | – | –
COc1cc(=O)n(C)nc1-c1cc(NS(=O)(=O)CCC(F)(F)F)ccc1Oc1ccccc1 [Example 28, 3,3,3-trifluoro-N-[3-(4-methoxy-1-methyl-6-oxo-1,6-dihydropyridazin-3-yl)-4-phenoxyphenyl]propane-1-sulfonamide] | 227 | 710 | 7620 | – | – | –
Cn1cc(-c2cc(NS(C)(=O)=O)ccc2Oc2ccccc2C(F)(F)F)ccc1=O [Example 236, N-{3-(1-methyl-6-oxo-1,6-dihydropyridin-3-yl)-4-[2-(trifluoromethyl)phenoxy]phenyl}methanesulfonamide] | 81.6 | 14.2 | 501 | – | – | –
Cn1cc(-c2cc(NS(C)(=O)=O)ccc2Oc2ccc(F)cc2F)c(C(F)(F)F)cc1=O [Example 5, N-{4-(2,4-difluorophenoxy)-3-[1-methyl-6-oxo-4-(trifluoromethyl)-1,6-dihydropyridin-3-yl]phenyl}methanesulfonamide] | 688 | 922 | > 3000 | – | – | –
Cc1ccc(S(=O)(=O)Nc2ccc(Oc3ccccc3)c(-c3ccc(=O)n(C)n3)c2)cc1 [Example 11, 4-methyl-N-[3-(1-methyl-6-oxo-1,6-dihydropyridazin-3-yl)-4-phenoxyphenyl]benzenesulfonamide] | 4370 | 4040 | 9460 | – | – | –
Cc1ccc(-c2cc(=O)n(C)nc2-c2cc(NS(C)(=O)=O)ccc2Oc2ccccc2)cc1 [Example 63, N-{3-[1-methyl-4-(4-methylphenyl)-6-oxo-1,6-dihydropyridazin-3-yl]-4-phenoxyphenyl}methanesulfonamide] | 23.9 | 85.2 | 739 | – | – | –
CN1CCN(Cc2ccc(-c3cc(=O)n(C)nc3-c3ccccc3Oc3ccccc3)cc2)CC1 [Example 61, 2-methyl-5-{4-[(4-methylpiperazin-1-yl)methyl]phenyl}-6-(2-phenoxyphenyl)pyridazin-3(2H)-one] | 48.9 | 33.1 | 911 | – | – | –
CCS(=O)(=O)Nc1ccc(Oc2ccc(F)cc2F)c(-c2cn(C)c(=O)cc2OCCN2CCOCC2)c1 [Example 286, N-[4-(2,4-difluorophenoxy)-3-{1-methyl-4-[2-(morpholin-4-yl)ethoxy]-6-oxo-1,6-dihydropyridin-3-yl]phenyl}ethanesulfonamide] | 75.9 | 82.6 | > 3000 | – | – | –
